≈ marks a conversion by molar mass, not a printed value. Like-named read-outs stand apart in the source and are kept apart here. Residues, ends and D or L forms follow the SMILES beside them.
Key:
E. coli AID#172 = format: in vivo, E. coli in NMRI mice
Protocol: Peptides were prepared in Ringer’s acetate pH 6.0 (vehicle) at 34 mg mL^−1. Comparator antibiotics included meropenem (Meronem®, AstraZeneca), polymyxin B sulfate (Sigma) and tobramycin (Novartis).
The E. coli thigh infection in vivo model was conducted using an E. coli AID#172 strain in female NMRI mice (Taconic) that were rendered neutropenic as above. At time −1 h, mice were inoculated intramuscularly in the quadriceps femoral muscle close to the femur of the left hind leg with 0.05 mL of a suspension of ~1–5 × 10^7 CFU mL^−1 of E. coli (fresh overnight colonies from 5% Horse Blood Agar plate suspended in sterile saline to ~10^8 CFU mL^−1, then diluted) with compound administered intravenously 1 and 12 h post infection (injection over 30 s with 10 mL kg^−1 of 0.6–15 mg kg^−1 AA139 or 5 mg kg^−1 polymyxin B). Colony counts were determined in thighs at 0 and 24 h post infection. The mice were killed by cervical dislocation, the skin was removed and the left hind leg from the hip joint to the hock was collected, cut into at least three parts and frozen at −80 °C. After thawing, the thighs were homogenized in 5 mL saline using a Dispomix® Drive. Each sample was then 10-fold diluted in saline and 20 μL spots were applied on 5% blood agar plates. All agar plates were incubated 18–24 h at 35 °C in ambient air.

E. coli ATCC 25922 [1] = format: cell-based, Escherichia coli
A. baumannii ATCC 19636 = test: microbe, parasite or virus in culture; format: cell-based, Acinetobacter baumannii
[2] = tested on: K. pneumoniae (#3010 & ST258); test: microbe, parasite or virus in culture; format: cell-based, Klebsiella pneumoniae
Protocol: The test media was cation-adjusted MHB (CAMHB, Becton Dickinson) supplemented with 2% Noble Agar (Becton Dickinson) and additionally for AA139 with 0.1% BSA. The agar dilution MIC values were determined as recommended by Clinical and Laboratory Standards Institute (CLSI)[47]. […] The inoculum for the spontaneous mutation plates targeted 10^9 to 10^10 colony-forming units (CFU) per plate. The viable count of each suspension was determined by plating serial ten-fold dilutions onto MHB/NA in duplicate. In addition, agar plates without drug were inoculated as positive controls. Plates were inspected for growth at both 24 and 48 h. Colony counts were determined manually. Using the counts at 48 h, the spontaneous mutation frequency was calculated using the following equation: (average number of colonies from duplicate selection plates)/(total number of cells inoculated onto each plate). If there were no colonies on the antibiotic selection plates, the spontaneous mutation frequency was reported as less than the frequency observed with one colony to indicate that the spontaneous mutation frequency was less than the limit of detection (one CFU).

E. coli ATCC 25922 [3] = test: microbe, parasite or virus in culture; format: cell-based, Escherichia coli; set-up: MIC, Survanta (5%) replicates: unit not given beside the values; conditions: for MIC, Survanta (5%) replicates: BMD with 5% Survanta lung surfactant
How it was run: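 Broth microdilution MIC in Mueller Hinton broth, 12-point 2-fold series from 128 or 64 down to 0.06 or 0.03 μg mL^−1, 5 × 10^5 CFU mL^−1 inoculum. Read visually after 18-20 h at 37 °C without shaking; n ≥ 6. Additional tests in CAMHB, and in MHB with 1% agarose.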

K. pneumoniae = test: microbe, parasite or virus in culture; format: cell-based, Klebsiella pneumoniae
[4] = A. baumannii ATCC 19636 type strain, n=2 to 6, mode or median
[5] = K. pneumoniae ATCC 700603 ESBL, OXA-2/SHV-18, n=2 to 6, mode or median
[6] = K. pneumoniae BAA-2146 NDM-1, n=2 to 6, mode or median

Question: For “polymyxin B [PolymyxinB, reference compound]”, which “Log reduction in thigh CFU compared to saline control” value (E. coli AID#172; 5 mg kg^−1, two i.v. doses) is on record?
Answer: 3.13 log

Question: Which results are given for colistin?
Answer: MIC, Survanta (5%) (E. coli ATCC 25922 [1]; E. coli ATCC 25922, FDA control strain, BMD with 5% Survanta lung surfactant, mode, or median where no mode, n=4 to 6, where n=2 differs the higher value): ≤0.06; MIC, Survanta (5%) (E. coli ATCC 25922 [1]; E. coli ATCC 25922, MHB + 5% (v/v) lung surfactant, n=2 to 6, mode or median): ≤ 0.06 µg/mL; MIC, Survanta (5%) (A. baumannii ATCC 19636; A. baumannii ATCC 19636, type strain, BMD with 5% Survanta lung surfactant, mode, or median where no mode, n=4 to 6, where n=2 differs the higher value): 0.125; MIC, Survanta (5%) replicates (A. baumannii ATCC 19636; A. baumannii ATCC 19636, type strain, BMD with 5% Survanta lung surfactant, replicate 1): 0.5; MIC, Survanta (5%) replicates (A. baumannii ATCC 19636; A. baumannii ATCC 19636, type strain, BMD with 5% Survanta lung surfactant, replicate 2): 0.25; MIC, Survanta (5%) replicates (A. baumannii ATCC 19636; A. baumannii ATCC 19636, type strain, BMD with 5% Survanta lung surfactant, replicate 3): 0.06; MIC, Survanta (5%) replicates (A. baumannii ATCC 19636; A. baumannii ATCC 19636, type strain, BMD with 5% Survanta lung surfactant, replicate 4): 0.06; MIC, Serum (50%) (A. baumannii ATCC 19636; A. baumannii ATCC 19636, type strain, BMD with 50% human serum, mode, or median where no mode, n=4 to 6, where n=2 differs the higher value): ≤0.031; MIC, Serum (50%) replicates (A. baumannii ATCC 19636; A. baumannii ATCC 19636, type strain, BMD with 50% human serum, replicate 1): ≤0.031; MIC, Serum (50%) replicates (A. baumannii ATCC 19636; A. baumannii ATCC 19636, type strain, BMD with 50% human serum, replicate 2): ≤0.031; MIC, Serum (50%) replicates (A. baumannii ATCC 19636; A. baumannii ATCC 19636, type strain, BMD with 50% human serum, replicate 3): ≤0.031; MIC, Serum (50%) replicates (A. baumannii ATCC 19636; A. baumannii ATCC 19636, type strain, BMD with 50% human serum, replicate 4): ≤0.031; MIC, Serum (50%) (A. baumannii ATCC 19636; [4]): ≤ 0.031 µg/mL; MIC, Survanta (5%) (A. baumannii ATCC 19636; [4]): 0.125 µg/mL; Noble agar dilution MIC ([2]; K. pneumoniae SSI#3010): 1 µg/mL; Agar (Noble) Dilution MIC ([2]; K. pneumoniae ST258): 1 µg/mL; Noble agar dilution MIC ([2]; K. pneumoniae ST258): 1 µg/mL; MIC, Survanta (5%) replicates (E. coli ATCC 25922 [3]; E. coli ATCC 25922, FDA control strain, replicate 1): 0.06; MIC, Survanta (5%) replicates (E. coli ATCC 25922 [3]; E. coli ATCC 25922, FDA control strain, replicate 2): 0.06; MIC, Survanta (5%) replicates (E. coli ATCC 25922 [3]; E. coli ATCC 25922, FDA control strain, replicate 3): ≤0.03; MIC, Survanta (5%) replicates (E. coli ATCC 25922 [3]; E. coli ATCC 25922, FDA control strain, replicate 4): ≤0.03; MIC, Serum (50%) (E. coli ATCC 25922 [3]; E. coli ATCC 25922, FDA control strain, BMD with 50% human serum, mode, or median where no mode, n=4 to 6, where n=2 differs the higher value): ≤0.03; MIC, Serum (50%) replicates (E. coli ATCC 25922 [3]; E. coli ATCC 25922, FDA control strain, BMD with 50% human serum, replicate 1): ≤0.03; MIC, Serum (50%) replicates (E. coli ATCC 25922 [3]; E. coli ATCC 25922, FDA control strain, BMD with 50% human serum, replicate 2): ≤0.03; MIC, Serum (50%) replicates (E. coli ATCC 25922 [3]; E. coli ATCC 25922, FDA control strain, BMD with 50% human serum, replicate 3): 0.125; MIC, Serum (50%) replicates (E. coli ATCC 25922 [3]; E. coli ATCC 25922, FDA control strain, BMD with 50% human serum, replicate 4): 0.063; MIC, Serum (50%) replicates (E. coli ATCC 25922 [3]; E. coli ATCC 25922, FDA control strain, BMD with 50% human serum, replicate 5): ≤0.03; MIC, Serum (50%) replicates (E. coli ATCC 25922 [3]; E. coli ATCC 25922, FDA control strain, BMD with 50% human serum, replicate 6): ≤0.03; MIC, Serum (50%) (E. coli ATCC 25922 [3]; E. coli ATCC 25922, MHB + 50% (v/v) human serum, n=2 to 6, mode or median): ≤ 0.03 µg/mL; MIC, Serum (50%) replicates (K. pneumoniae; K. pneumoniae ATCC 13883, type strain, BMD with 50% human serum, replicate 1): ≤0.03; MIC, Serum (50%) replicates (K. pneumoniae; K. pneumoniae ATCC 13883, type strain, BMD with 50% human serum, replicate 2): ≤0.03; MIC, Serum (50%) (K. pneumoniae; K. pneumoniae ATCC 13883, type strain, BMD with 50% human serum, where n=2 differs the higher value is recorded): ≤0.03; MIC, Serum (50%) (K. pneumoniae; K. pneumoniae ATCC 13883 type strain, n=2 to 6, mode or median): ≤ 0.03 µg/mL; MIC, Survanta (5%) (K. pneumoniae; K. pneumoniae ATCC 700603, ESBL, OXA-2/SHV-18, BMD with 5% Survanta lung surfactant, mode, or median where no mode, n=4 to 6, where n=2 differs the higher value): 0.125; MIC, Survanta (5%) replicates (K. pneumoniae; K. pneumoniae ATCC 700603, ESBL, OXA-2/SHV-18, BMD with 5% Survanta lung surfactant, replicate 1): 1; MIC, Survanta (5%) replicates (K. pneumoniae; K. pneumoniae ATCC 700603, ESBL, OXA-2/SHV-18, BMD with 5% Survanta lung surfactant, replicate 2): 0.5; MIC, Survanta (5%) replicates (K. pneumoniae; K. pneumoniae ATCC 700603, ESBL, OXA-2/SHV-18, BMD with 5% Survanta lung surfactant, replicate 3): 0.03; MIC, Survanta (5%) replicates (K. pneumoniae; K. pneumoniae ATCC 700603, ESBL, OXA-2/SHV-18, BMD with 5% Survanta lung surfactant, replicate 4): 0.06; MIC, Serum (50%) (K. pneumoniae; K. pneumoniae ATCC 700603, ESBL, OXA-2/SHV-18, BMD with 50% human serum, mode, or median where no mode, n=4 to 6, where n=2 differs the higher value): 0.125; MIC, Serum (50%) replicates (K. pneumoniae; K. pneumoniae ATCC 700603, ESBL, OXA-2/SHV-18, BMD with 50% human serum, replicate 1): 0.25; MIC, Serum (50%) replicates (K. pneumoniae; K. pneumoniae ATCC 700603, ESBL, OXA-2/SHV-18, BMD with 50% human serum, replicate 2): 0.25; MIC, Serum (50%) replicates (K. pneumoniae; K. pneumoniae ATCC 700603, ESBL, OXA-2/SHV-18, BMD with 50% human serum, replicate 3): 0.031; MIC, Serum (50%) replicates (K. pneumoniae; K. pneumoniae ATCC 700603, ESBL, OXA-2/SHV-18, BMD with 50% human serum, replicate 4): 0.063; MIC, Serum (50%) replicates (K. pneumoniae; K. pneumoniae ATCC 700603, ESBL, OXA-2/SHV-18, BMD with 50% human serum, replicate 5): 0.031; MIC, Serum (50%) replicates (K. pneumoniae; K. pneumoniae ATCC 700603, ESBL, OXA-2/SHV-18, BMD with 50% human serum, replicate 6): ≤0.031; MIC, Serum (50%) (K. pneumoniae; [5]): 0.125 µg/mL; MIC, Survanta (5%) (K. pneumoniae; [5]): 0.125 µg/mL; MIC, Survanta (5%) (K. pneumoniae; K. pneumoniae BAA-2146, NDM-1, BMD with 5% Survanta lung surfactant, mode, or median where no mode, n=4 to 6, where n=2 differs the higher value): 0.06; MIC, Survanta (5%) replicates (K. pneumoniae; K. pneumoniae BAA-2146, NDM-1, BMD with 5% Survanta lung surfactant, replicate 1): 0.125; MIC, Survanta (5%) replicates (K. pneumoniae; K. pneumoniae BAA-2146, NDM-1, BMD with 5% Survanta lung surfactant, replicate 2): 0.125; MIC, Survanta (5%) replicates (K. pneumoniae; K. pneumoniae BAA-2146, NDM-1, BMD with 5% Survanta lung surfactant, replicate 3): ≤0.03; MIC, Survanta (5%) replicates (K. pneumoniae; K. pneumoniae BAA-2146, NDM-1, BMD with 5% Survanta lung surfactant, replicate 4): ≤0.03; MIC, Survanta (5%) (K. pneumoniae; [6]): 0.06 µg/mL

Question: Which results are given for `CC(C)[C@@H]1NC(=O)[C@H](Cc2ccc(O)cc2)NC(=O)[C@H](Cc2c[nH]c3ccccc23)NC(=O)[C@@H](NC(=O)[C@H](Cc2ccccc2)NC(=O)CN)CSSC[C@@H](C(=O)N[C@@H](CC(N)=O)C(=O)O)NC(=O)[C@H](CCCNC(=N)N)NC(=O)[C@H](CCCNC(=N)N)NC(=O)[C@H](Cc2ccc(O)cc2)NC(=O)[C@@H]2CSSC[C@H](NC1=O)C(=O)N[C@@H](C)C(=O)N[C@@H](CCCNC(=N)N)C(=O)N[C@@H](CCCNC(=N)N)C(=O)N[C@@H](CC(N)=O)C(=O)NCC(=O)N[C@@H](C)C(=O)N[C@@H](CCCNC(=N)N)C(=O)N[C@@H](C(C)C)C(=O)N2` [AA139] (HELM PEPTIDE1{G.F.C.W.Y.V.C.A.R.R.N.G.A.R.V.C.Y.R.R.C.N}$PEPTIDE1,PEPTIDE1,3:R3-20:R3|PEPTIDE1,PEPTIDE1,7:R3-16:R3$$$V2.0)?
Answer: ED50 in thigh (E. coli AID#172; mouse, in vivo, iv): 4.8 mg/kg; Agar (Noble) Dilution MIC ([2]; K. pneumoniae 3010): 16 µg/mL; Agar (Noble) Dilution MIC ([2]; K. pneumoniae ST258): 16 µg/mL; MIC, MHB (E. coli ATCC 25922 [3]; ATCC 25922): 0.125 µg/mL (≈ 0.049 µM); MIC, Serum (50%) (K. pneumoniae; [5]): 8 µg/mL (≈ 3.14 µM); MIC, Survanta (5%) (K. pneumoniae; [6]): 2 µg/mL (≈ 0.784 µM)

— PMC7311426, “An amphipathic peptide with antibiotic activity against multidrug-resistant Gram-negative bacteria” (Nature Communications, 2020)
